How the values were obtained:
Assay in all cases: relative viability (nuclei count vs DMSO), 5 days (fraction); higher = more cells survive
Wnt-C59 + Alpelisib = compound: CC1=NC=CC(=C1)C2=CC=C(C=C2)CC(=O)NC3=CC=C(C=C3)C4=CN=CC=C4 [Wnt-C59] + Cc1nc(NC(=O)N2CCC[C@H]2C(N)=O)sc1-c1ccnc(C(C)(C)C(F)(F)F)c1 [Alpelisib] (partner 2 µM)
Procedure, shortened: (§1)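 Cells from lung cancer lines were seeded into 1536-well plates and, one day later, dosed by pin tool. Treatments were either a single drug or a fixed dose of an anchor drug with five library-drug doses (not always all listed) in √10 steps. After 5 days, nuclei were stained in a one-step fixation (final 0.05% Triton X-100, 1% formaldehyde, 1 ug/ml Hoechst) and counted on 4× images, and relative viability is the treated-to-vehicle nuclei ratio, as the median of duplicate plates.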

Lapatinib + Trametinib = compound: CS(=O)(=O)CCNCc1ccc(-c2ccc3ncnc(Nc4ccc(OCc5cccc(F)c5)c(Cl)c4)c3c2)o1 [Lapatinib] + CC(=O)Nc1cccc(-n2c(=O)n(C3CC3)c(=O)c3c(Nc4ccc(I)cc4F)n(C)c(=O)c(C)c32)c1 [Trametinib] (partner 0.02 µM)
Procedure, shortened: as §1

Lapatinib + Bortezomib = compound: CS(=O)(=O)CCNCc1ccc(-c2ccc3ncnc(Nc4ccc(OCc5cccc(F)c5)c(Cl)c4)c3c2)o1 [Lapatinib] + CC(C)C[C@H](NC(=O)[C@H](Cc1ccccc1)NC(=O)c1cnccn1)B(O)O [Bortezomib] (partner 0.002 µM)
Procedure, shortened: as §1

Lapatinib + Luminespib = compound: CS(=O)(=O)CCNCc1ccc(-c2ccc3ncnc(Nc4ccc(OCc5cccc(F)c5)c(Cl)c4)c3c2)o1 [Lapatinib] + CCNC(=O)c1noc(-c2cc(C(C)C)c(O)cc2O)c1-c1ccc(CN2CCOCC2)cc1 [Luminespib] (partner 0.01 µM)
Procedure, shortened: as §1

Cell Line	relative viability (Wnt-C59 + Alpelisib; first compound 0.001 µM)	relative viability (Wnt-C59 + Alpelisib; first compound 0.01 µM)	relative viability (Wnt-C59 + Alpelisib; first compound 0.03162 µM)	relative viability (Wnt-C59 + Alpelisib; first compound 0.1 µM)	relative viability (Lapatinib + Trametinib; first compound 0.06325 µM)	relative viability (Lapatinib + Trametinib; first compound 0.2 µM)	relative viability (Lapatinib + Trametinib; first compound 0.6325 µM)	relative viability (Lapatinib + Trametinib; first compound 2 µM)	relative viability (Lapatinib + Bortezomib; first compound 0.02 µM)	relative viability (Lapatinib + Bortezomib; first compound 0.06325 µM)	relative viability (Lapatinib + Bortezomib; first compound 0.2 µM)	relative viability (Lapatinib + Bortezomib; first compound 0.6325 µM)	relative viability (Lapatinib + Bortezomib; first compound 2 µM)	relative viability (Lapatinib + Luminespib; first compound 0.06325 µM)	relative viability (Lapatinib + Luminespib; first compound 0.2 µM)	relative viability (Lapatinib + Luminespib; first compound 0.6325 µM)	relative viability (Lapatinib + Luminespib; first compound 2 µM)	relative viability (Lapatinib + Trametinib; first compound 0.02 µM)	relative viability (Lapatinib + Luminespib; first compound 0.02 µM)
NCI-H596	0.528	0.396	0.615	0.475	0.745	0.777	0.854	0.617	1.17	1.04	0.964	1.03	0.776	0.879	1.04	0.944	0.756		
NCI-H661	0.621	0.595	0.813	0.821	0.536	0.549	0.432	0.388	0.703	0.756	0.674	0.618	0.482	0.925	0.814	0.807	0.584	0.509	0.887
LU99A	0.496	0.566	0.604	0.538	0.453	0.448	0.511	0.536	1.05	0.932	1.15	1.15	0.94	0.248	0.285	0.251	0.244	0.532	0.253
SW 1573	0.701	0.758	0.89	0.79	0.577	0.527	0.606	0.515	1.01	0.892	0.953	1.18	1.01	0.23	0.387	0.233	0.146		0.293
NCI-H1734	0.807	0.68	0.703	0.726	0.548	0.626	0.691	0.721		0.839	1.02	0.993	0.862	0.196	0.189	0.186	0.174		0.22
NCI-H2126	0.742	0.703	0.788	0.723	0.417	0.467	0.533	0.402		1.05	1.04	1.03	1.03	0.729	0.833	0.859	0.775	0.536	
NCI-H838	1.06	0.98	1.13	1.02	0.436	0.575	0.517	0.483	1.08	0.461	0.843	0.829	0.674	0.341	0.381	0.258	0.283	0.609	0.25
NCI-H2228	0.816	0.74	0.929	0.751	0.441	0.609	0.583	0.27	0.841	1	1.09	1.01	0.801	0.128	0.145	0.143	0.123	0.112	0.137

From the supplement of paper PMC10307832
